Here are results for seven compounds from ChEMBL document CHEMBL3400056, “Novel thiazolo[3,2-b]-1,2,4-triazoles derived from naproxen with analgesic/anti-inflammatory properties: Synthesis, biological evaluation and molecular modeling studies” (Bioorg Med Chem, 2015).

For data set [1], the system named is Mus musculus. The data set can be described thus: Analgesic activity in Swiss albino mouse assessed as latancy of withdrawing tail at 100 mg/kg, po measured after 2 hrs by tail flick test relative to control. Format: functional.
For data set [2], the system named is Mus musculus. The data set can be described thus: Antiinflammatory activity in Swiss albino mouse assessed as inhibition of carrageenan-induced paw edema at 50 mg/kg, po administered 1 hr prior to carrageenan challenge measured after 2 hrs relative to control. On the set-up: scale not given: the % may be the effect or the level left. The data set is classed as functional. A general note: The carrageenan paw model is a standard test of acute inflammation.

The subject of data set [3] is Mus musculus. The data set is described as follows: Gastrointestinal toxicity in Swiss albino mouse assessed as ulcer index at 50 mg/kg, po measured after 2 hrs. The data set is classed as organism-based. On the set-up: dose 50 mg/kg, route oral. The conditions noted are these: in vivo.
The test system of data set [4] is Mus musculus. The data set is described as follows: Analgesic activity in Swiss albino mouse assessed as time of licking paws at 50 mg/kg, po measured after 2 hrs by tail flick test relative to control. The data set is classed as functional. (In general: Thermal pain tests record how soon the animal reacts.)
Data set [5] has as its system Mus musculus. The data set is described as follows: Acute toxicity in Swiss albino mouse assessed as behavioral changes at 50 to 100 mg/kg, po measured up to 14 days. Format: organism-based. More on the design: dose 50-100 mg/kg, route oral. The conditions noted are these: in vivo, 336 h.
Data set [6] deals with Mus musculus. The data set is described as follows: Analgesic activity in Swiss albino mouse assessed as latancy of withdrawing tail at 50 mg/kg, po measured after 2 hrs by tail flick test relative to control. Format: functional.
Data set [7] relates to Mus musculus. The data set can be described thus: Analgesic activity in Swiss albino mouse assessed as time of licking paws at 100 mg/kg, po measured after 2 hrs by tail flick test relative to control. The data set is classed as functional.
The subject of data set [8] is Mus musculus. The data set can be described thus: Acute toxicity in Swiss albino mouse assessed as mortality at 50 to 100 mg/kg, po measured after 6 hrs to 14 days. The data set is classed as organism-based. On the set-up: dose 50-100 mg/kg, route oral. The note with it: in vivo.
Data set [9] deals with Mus musculus. The data set can be described thus: Gastrointestinal toxicity in Swiss albino mouse assessed as ulcer index at 100 mg/kg, po measured after 2 hrs. Format: organism-based. On the set-up: dose 100 mg/kg, route oral. The note with it: in vivo.
Data set [10] relates to Mus musculus. The data set is described as follows: Antiinflammatory activity in Swiss albino mouse assessed as inhibition of carrageenan-induced paw edema at 100 mg/kg, po administered 1 hr prior to carrageenan challenge measured after 2 hrs relative to control. Format: functional. On the set-up: scale not given: the % may be the effect or the level left.
The test system of data set [11] is Mus musculus. The data set can be described thus: Acute toxicity in Swiss albino mouse assessed as weight loss at 50 to 100 mg/kg, po measured up to 14 days. Format: organism-based. On the set-up: dose 50-100 mg/kg, route oral. The note with it: in vivo, 336 h.

Take `COc1ccc2cc(C(C)c3nc4s/c(=C\c5ccc(C)o5)c(=O)n4n3)ccc2c1` (stereo unspecified): the MPE with Mus musculus [1] is 48.6%; with Mus musculus [4], 23.9%; in the data set on Mus musculus [6], 38.1%; in the data set on Mus musculus [7] it was 35.3%. Further, the Activity with Mus musculus [2] is 41%; with Mus musculus [5], “Non-toxic”; in the data set with Mus musculus [8] it was “Non-toxic”; with Mus musculus [10], 37%; in the data set on Mus musculus [11] it was “Non-toxic”. Moreover, the UI in the data set with Mus musculus [3] was found to be 1.3; with Mus musculus [9] it was 2.7.

Regarding `COc1ccc2cc(C(C)c3nc4s/c(=C\c5ccccc5OCc5ccccc5)c(=O)n4n3)ccc2c1` (stereo unspecified), the MPE in the data set with Mus musculus [1] worked out at 18%; in the data set with Mus musculus [4], 17.7%; in the data set with Mus musculus [6] it was 18.9%; in the data set with Mus musculus [7], 25.2%. For the same compound, the Activity in the data set on Mus musculus [2] is recorded as 43%; with Mus musculus [5] it was “Non-toxic”; with Mus musculus [8], “Non-toxic”; in the data set with Mus musculus [10] it was 33.9%; in the data set on Mus musculus [11] it was “Non-toxic”. Further, the UI in the data set on Mus musculus [3] is listed as 2.4; in the data set on Mus musculus [9], 2.6.

Regarding `COc1ccc2cc(C(C)c3nc4s/c(=C\c5sccc5C)c(=O)n4n3)ccc2c1` (stereo unspecified), the MPE in the data set with Mus musculus [1] was found to be 10.2%; in the data set with Mus musculus [4], 13.5%; with Mus musculus [6], 15.2%; in the data set on Mus musculus [7], 18.3%. Further, the Activity was 22.5% in the data set with Mus musculus [2]; “Non-toxic” in the data set on Mus musculus [5]; “Non-toxic” with Mus musculus [8]; 19.7% in the data set with Mus musculus [10]; “Non-toxic” in the data set with Mus musculus [11]. Further, the UI amounted to 2.6 in the data set with Mus musculus [3] and 2.7 with Mus musculus [9].

`COc1ccc2c3c1O[C@H]1C(=O)CC[C@@]4(O)[C@@H](C2)N(C)CC[C@]314` [OXYCODONE]: the MPE in the data set with Mus musculus [1] stood at 66.9%; with Mus musculus [4] it was 52.9%; in the data set on Mus musculus [6], 63.3%; with Mus musculus [7], 52.9%. Besides, the Activity in the data set on Mus musculus [2] amounted to 0.9%; in the data set with Mus musculus [10] it was 3.9%. The UI in the data set with Mus musculus [3] and in the data set on Mus musculus [9] was 1.5 each time.

With `COc1ccc2cc(C(C)c3nc4s/c(=C\c5cccs5)c(=O)n4n3)ccc2c1` (stereo unspecified), the MPE in the data set with Mus musculus [1] turned out to be 24.9%; in the data set on Mus musculus [4], 16.2%; in the data set with Mus musculus [6], 10.5%; in the data set on Mus musculus [7] it was 21.3%. Moreover, the Activity in the data set on Mus musculus [2] is reported as 21.7%; with Mus musculus [5], “Non-toxic”; with Mus musculus [8] it was “Non-toxic”; in the data set with Mus musculus [10], 21.2%; in the data set on Mus musculus [11], “Non-toxic”. Moreover, the UI was found to be 2.6 with Mus musculus [3] and 2.3 with Mus musculus [9].

Turning to `COc1ccc2cc(C(C)c3nc4s/c(=C\C=C\c5ccccc5)c(=O)n4n3)ccc2c1` (stereo unspecified), the MPE with Mus musculus [1] came to 30.9%; in the data set on Mus musculus [4], 15.8%; with Mus musculus [6], 28.4%; with Mus musculus [7], 24.8%. For the same compound, the Activity in the data set on Mus musculus [2] is recorded as 36.2%; in the data set on Mus musculus [5], “Non-toxic”; with Mus musculus [8], “Non-toxic”; in the data set with Mus musculus [10], 37%; in the data set on Mus musculus [11], “Non-toxic”. Besides, the UI in the data set with Mus musculus [3] is on record as 2.4; in the data set on Mus musculus [9], 3.2.

As to `COc1ccc2cc([C@H](C)C(=O)O)ccc2c1` [NAPROXEN], the MPE in the data set with Mus musculus [1] is given as 49.4%; with Mus musculus [4], 39.3%; in the data set on Mus musculus [6] it was 47.6%; in the data set with Mus musculus [7], 38.6%. Moreover, the Activity in the data set on Mus musculus [2] was 49.2%; in the data set on Mus musculus [10], 53.3%. Besides, the results for the UI in the data set on Mus musculus [3] and in the data set with Mus musculus [9] were 3.6 and 4.2, respectively.
